Entries after “also recorded” stand apart in the source; their conditions may differ.
Experiments:
Supt-1 T-cells = assay: Viability of Supt-1 T-cells (MTS assay, FIGS. 2 and 6); assay type: cell-based
Method: FIG. 2 is a graph showing the viability of Supt-1 T-cells treated with different concentrations of auranofin (AU) or buthionine sulfoximine (BSO). Viability was measured 72 hours after treatment with the drugs at the indicated concentrations with the MTS assay. Absorbance values were normalized over untreated controls and expressed as percentage. BSO=buthionine sulfoximine. Concentrations are expressed in μM. Data are expressed as mean t SEM and were analysed by the Turkey posttest following One Way ANOVA. *P<0.05; **P<0.01 ***P<0.001; ****P<0.0001. NS: non-significant. The synergistic index (SI) is expressed where significant differences exist in comparison with the single drug treatments.
FIG. 6 is a graph showing the viability of Supt-1 T-cells treated with different concentrations of cisplatin or buthionine sulfoximine (BSO). Viability was measured 72 hours after treatment with the drugs at the indicated concentrations with the MTS assay. Absorbance values were normalized over untreated controls and expressed as percentage. BSO=buthionine sulfoximine. Concentrations are expressed in μM; Asterisks show the significant differences [*q<0.05; **q<0.01; q is the P value corrected for multiple comparisons by controlling the False Discovery Rate (threshold for significance=q=0.05)]. NS: non-significant. The synergistic index (SI) is expressed where significant differences exist in comparison with the single drug treatments.
(§1) In-vitro activity on activated CD4^+ T-cells and leukemia/lymphoma Methods. Resting CD4^+ T-cells, cultured T-cell leukemic Jurkat cells and Sup-T1 cells were left untreated or incubated for 24-72 hours with various concentrations of auranofin and/or buthionine sulfoximine (BSO), or chloroquine (only CD4^+ T-cells) or cisplatin (only Jurkat and Supt-T1 cells) CD4^+ T-cells were then activated by adding phytohemagglutinin (2 μg/mL). Alternatively, CD4^+ T-cells were first activated with anti-CD3/anti-CD28 beads and, after 72 hours, were left untreated or were incubated with auranofin and/or buthionine sulfoximine (BSO), or chloroquine. Cell viability was determined 24-72 hours post-activation with an MTT assay (CellTiter 96@ Non-Radioactive Cell Proliferation Assay) or MTS assay (CellTiter 960 AQueous One Solution Cell Proliferation Assay System; Promega). For the assay, 300×10^5 cells were re-suspended in 100 μL of medium and transferred to a 96-well plate. Cells were then incubated with 20 μL of a substrate solution (One Solution Reagent) for 3-4 hours in a CO2 (5%) incubator at 37° C. For the MTT assay, 100 μL of a Solubilization/Stop Solution were used to stop the reaction. Medium-only containing wells were included to serve as a blank control. Absorbance levels were recorded at 490 nm (MTS) or 570 nm (MTT) and, after subtraction of the blank, absorbance values were expressed as percentage of controls.
(§2) Results. The results from the new dosage combinations were compared to the untreated cells as well as the cells treated with single drugs or “classical” dosages, in a multiple comparison analysis. Thus, the statistical significances shown are also significant compared to the untreated cells.

Jurkat T-cells = assay: Viability of Jurkat T-cells (MTT assay, FIG. 4); assay type: cell-based
Method: FIG. 4 is a graph showing the viability of Jurkat T-cells treated with different concentrations of cisplatin, auranofin and/or buthionine sulfoximine (BSO). Viability was measured 48 hours after treatment with the drugs at the indicated concentrations with the MTT assay. Absorbance values were normalized over untreated controls and expressed as percentage. Concentrations are expressed in μM. Data are expressed as mean±SEM and were. Asterisks show the significant differences [*q<0.05; *q<0.01; q is the P value corrected for multiple comparisons by controlling the False Discovery Rate (threshold for significance=q=0.05)]. NS: non-significant. The synergistic index (SI) is expressed where significant differences exist in comparison with the single drug treatments.
as §1, §2

glutathione levels = conditions: Malaker et al. 1994; cited from earlier work
cellular GSH = conditions: 1.5 g/m^2 BSO at 12 hour intervals for six doses, alone or with 15 mg/m^2 melphalan; cited from earlier work
[1] = 5 mmol/kg (equivalent to 111.5 mg/kg) BSO 12 hours before the chemotherapeutic agent; cited from earlier work
MKN-28 cells = conditions: BSO 5, 10 and 25 mM; cisplatin 0.1-3.0 μg/ml; cited from earlier work
MKN-45 cells = conditions: BSO 5, 10 and 25 mM; cisplatin 0.01-1 μg/ml; cited from earlier work
[2] = BSO 500 mg/kg intraperitoneally; cisplatin 6 or 9 mg/kg; cited from earlier work
SIVmac251 = conditions: auranofin 0.4 mg/kg/day and BSO 450 mg/kg in combination with ART; cited from earlier work
[3] = rats; cited from earlier work
[4] = tested on: murine mammary carcinoma cell line; conditions: auranofin/submicromolar BSO combination; cited from earlier work
[5] = submicromolar BSO with cisplatin 10 μM

## CCCCS(=N)(=O)CCC(N)C(=O)O (centres unmarked) [BSO, buthionine sulfoximine]
Supt-1 T-cells; BSO 250 μM
  difference between BSO only and the same BSO concentration in the presence of auranofin: no significant difference
Supt-1 T-cells; BSO 250 μM with cisplatin
  effect on cisplatin-induced cell death: increased cisplatin-induced cell death
Supt-1 T-cells; BSO 250 μM with cisplatin (FIG. 6), effect antagonistic
  synergistic index: > 1.1
Supt-1 T-cells; BSO 250 μM, no auranofin
  effect of BSO only: cytotoxic effect
Supt-1 T-cells; FIG. 6
  effect of BSO on susceptibility to cisplatin: chemosensitizing effect
Supt-1 T-cells; auranofin and BSO 250 μM
  viability: low viability
Supt-1 T-cells; submicromolar BSO with auranofin, e.g. auranofin 0.5+BSO 0.75 μM
  difference between combined drug treatment and the single drugs alone: extremely significant difference
Supt-1 T-cells; [5]
  inhibition of cellular proliferation compared with BSO 250 μM: no statistical difference
Supt-1 T-cells; submicromolar BSO with cisplatin 10 μM (FIG. 6)
  synergism of BSO and cisplatin: true synergism
Supt-1 T-cells; submicromolar BSO with clinically-achievable auranofin concentrations (FIGS. 2 and 3)
  anticancer effect: direct anticancer effect
Jurkat T-cells; BSO (submicromolar) with cisplatin (10 μM), 48 h (FIG. 4)
  synergism of BSO and cisplatin: Significant synergism; also recorded: true synergism
Jurkat T-cells; BSO with auranofin and cisplatin (FIGS. 4 and 5)
  effect of auranofin and low concentrations of BSO on the anti-neoplastic effect of cisplatin: increase the anti-neoplastic effect of cisplatin
Jurkat T-cells; FIG. 4
  effect of BSO on susceptibility to cisplatin: chemosensitizing effect
Jurkat T-cells; [5]
  inhibition of cellular proliferation compared with BSO 250 μM: no statistical difference
Glutathione levels
  BSO concentration required to achieve a 90% decrease in glutathione levels: 6 µM
Cellular GSH
  cellular GSH: Marked depletion
[1]
  effect on anti-cancer effects of cyclophosphamide, cisplatin or bleomycin: increased the anti-cancer effects
MKN-28 cells
  effect of BSO pre-treatment on antitumor activity of cisplatin: increased the antitumor activity of cisplatin
MKN-45 cells
  effect of BSO pre-treatment on antitumor activity of cisplatin: increased the antitumor activity of cisplatin
[2]
  effect of BSO pre-treatment on antitumor effects of cisplatin: enhanced
SIVmac251
  disease outcome following suspension of all therapies: functional cure
[3]
  effect on nephrotoxicity of cisplatin: reduce the nephrotoxicity
[4]
  directly cytotoxic/anticancer effect: not able to detect
